Results from publication PMC11433283, “Sulfated Aeruginosins from Lake Kinneret: Microcystis Bloom, Isolation, Structure Elucidation, and Biological Activity” (Marine Drugs, 2024).
pIC50: −log10 of the molar value.

Target: T1, serine protease trypsin (Bos taurus, UniProt P00760)
T1 construct: purchased Sigma-Aldrich T1426
T1 sequence (P00760 24-246): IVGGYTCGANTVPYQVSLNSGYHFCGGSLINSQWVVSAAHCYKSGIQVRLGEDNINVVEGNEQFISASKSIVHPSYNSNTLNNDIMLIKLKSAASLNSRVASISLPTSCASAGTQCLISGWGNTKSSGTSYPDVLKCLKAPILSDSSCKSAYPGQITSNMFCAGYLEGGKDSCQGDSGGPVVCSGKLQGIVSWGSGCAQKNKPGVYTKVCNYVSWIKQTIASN
Assay: Trypsin inhibition (protease inhibition assay, BAPNA substrate)
Assay type: biochemical
Conditions: for pIC50: Tris buffer (50 mM Tris-HCl, 100 mM NaCl, 1 mM CaCl2, pH 7.5), 37 °C, 5 min pre-incubation, absorbance 405 nm, kinetic over 10 min; for IC50 values for trypsin compared with those of aeruginosins KT608A and KT608B: comparison with literature values of KT608A and KT608B [19]
Protocol: The samples for biological assays were dissolved in ethanol at a concentration of 1 mg/mL and further diluted with Tris buffer to the desired concentrations. The samples were tested for inhibition of trypsin (Cat# T1426, Sigma-Aldrich, St. Louis, MO, USA). The assay was performed in a Tris buffer (50 mM Tris-HCl, 100 mM NaCl, and 1 mM CaCl2 at pH 7.5). Benzoyl-L-arginine-p-nitroanilide hydrochloride (BAPNA Cat# 03,310 Chem-Impex Int’l Inc., Wood Dale, IL, USA), the trypsin substrate was dissolved at 1 mg/mL in 1:9 EtOH/buffer. The enzyme was dissolved in a buffer at 1 mg/mL. To each well were added 100 µL of buffer, 10 µL of enzyme, and 10 µL of sample. The plate was placed in the spectrophotometer at 37 °C. After 5 min, 100 µL of substrate solution was added to each well, and the plate was placed in the spectrophotometer for the kinetic measurement of the absorbance intensity over 10 min at a wavelength of 405 nm.

Molecule | pIC50 (BAPNA substrate) | IC50 values for trypsin compared with those of aeruginosins KT608A and KT608B | Inhibition of trypsin (inactive at tested concentration) (at a concentration of 1.7 mM, BAPNA substrate, pH 7.5, 37 °C, 405 nm)
N=C(N)NCCCCNC(=O)[C@@H]1C[C@@H]2CC[C@@H](OS(=O)(=O)O)C[C@@H]2N1C(=O)[C@@H](Cc1ccccc1)NC(=O)[C@@H](O)Cc1ccc(O)cc1 [Aeruginosin KT688, L-Hpla-D-Phe-L-Choi-6-sulfate-agmatine] | 5.62 | comparable with those of aeruginosins KT608A and KT608B | 
6-Cl-Hpla-7-sulfate-2-Ile-Choi-amide [Aeruginosin KT575] |  |  | inactive
N=C(N)NCCCCNC(=O)[C@@H]1C[C@@H]2CC[C@@H](OS(=O)(=O)O)C[C@@H]2N1C(=O)[C@H](CCc1ccc(O)cc1)NC(=O)[C@@H](O)Cc1ccc(O)cc1 [Aeruginosin KT718, L-Hpla-L-Hty-L-Choi-6-sulfate-Agm] | 5.84 | comparable with those of aeruginosins KT608A and KT608B | 
